Results from US6576671B1, “Aminotetralin derivatives for the therapy of cardiovascular diseases” (Chiese Farmaceutici S.p.A., priority 1999, dated 2003).
pIC50: −log10 of the molar value.

How the values were obtained:
[1] = target: α2 adrenergic receptors; assay: α2 adrenergic receptor binding, [3H]-rauwolscine, rat cerebral cortex; settings: rat cerebral cortex; read-out: IC50, 50% inhibition of [3H]-rauwolscine specific binding
Method: The affinity of CHF 1024 and CHF 1035 for α2, adrenergic receptors was tested on human platelets and on rat cerebral cortex.
(§1) The antagonist [^3H]-rauwolscine was used as marker of the receptor, being its binding reversible, saturable and specific.
Values are expressed as IC50=molar concentration of drug required for 50% inhibition of [^3H]-rauwolscine specific binding.

[2] = tested on: plasma and tissue esterases; assay: Transformation into the desesterified form after administration; assay type: in vivo
[3] = target: T1, α2 adrenergic receptors (Homo sapiens, UniProt P08913); assay: α2 adrenergic receptor binding, [3H]-rauwolscine, human platelets; settings: human platelets; read-out: IC50, 50% inhibition of [3H]-rauwolscine specific binding
T1 construct: from tissue; host or cells: human platelets
T1 sequence (P08913 1-465): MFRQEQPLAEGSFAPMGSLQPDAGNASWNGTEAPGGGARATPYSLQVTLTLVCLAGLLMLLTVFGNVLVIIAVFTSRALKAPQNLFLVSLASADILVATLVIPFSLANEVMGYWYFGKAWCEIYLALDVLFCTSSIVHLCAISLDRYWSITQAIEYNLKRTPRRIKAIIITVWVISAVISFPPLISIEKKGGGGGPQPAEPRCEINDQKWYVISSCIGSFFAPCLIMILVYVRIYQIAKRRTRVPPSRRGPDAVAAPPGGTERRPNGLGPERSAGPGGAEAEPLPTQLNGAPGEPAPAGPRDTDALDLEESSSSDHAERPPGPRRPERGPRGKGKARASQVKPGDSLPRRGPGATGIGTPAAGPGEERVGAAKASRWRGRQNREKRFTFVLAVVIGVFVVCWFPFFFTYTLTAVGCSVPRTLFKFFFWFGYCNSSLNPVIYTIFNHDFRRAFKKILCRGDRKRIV
Description: as §1

[4] = tested on: anesthetized rats; assay: In vivo cardiovascular effects in anesthetized rats; set-up: species or system rat
Method: Male albino rats (Sprague Dawley, 350-400 g) were anesthetized by sodium pentobarbital (60 mg/kg) and maintained by i.v. infusion (6 mg/h). The trachea was cannulated to facilitate spontaneous respiration and body temperature was maintained at 37 C. Homoiothermic Blanket Control System (Harvard, England).
The right femoral artery was cannulated for arterial blood pressure measurement and left jugular vein or duodenum were cannulated for drug administration. Mean arterial pressure and heart rate were continuously monitored by pressure transducer and medium gain amplifier triggered by the ECG signal, respectively. […]
CHF 1035 was administered intraduodenally (1 mg/kg).
The response to […] was determined in the absence and in the presence of the selective β2-adrenoceptor antagonist ICI 118.551 (0.2 mg/kg i.v.) and the selective DA2-dopaminergic antagonist domperidone (0 3 mg/kg i.v.) both alone and in combination. The antagonists were administered 10 min before the i.d. drug administration.

[5] = target: peripheral DA2 dopaminergic receptors (Oryctolagus cuniculus, UniProt G1T1Q0); assay: Peripheral DA2 dopaminergic activity in electrically stimulated rabbit rectococcygeus muscle
Sequence of peripheral DA2 dopaminergic receptors (G1T1Q0 1-443): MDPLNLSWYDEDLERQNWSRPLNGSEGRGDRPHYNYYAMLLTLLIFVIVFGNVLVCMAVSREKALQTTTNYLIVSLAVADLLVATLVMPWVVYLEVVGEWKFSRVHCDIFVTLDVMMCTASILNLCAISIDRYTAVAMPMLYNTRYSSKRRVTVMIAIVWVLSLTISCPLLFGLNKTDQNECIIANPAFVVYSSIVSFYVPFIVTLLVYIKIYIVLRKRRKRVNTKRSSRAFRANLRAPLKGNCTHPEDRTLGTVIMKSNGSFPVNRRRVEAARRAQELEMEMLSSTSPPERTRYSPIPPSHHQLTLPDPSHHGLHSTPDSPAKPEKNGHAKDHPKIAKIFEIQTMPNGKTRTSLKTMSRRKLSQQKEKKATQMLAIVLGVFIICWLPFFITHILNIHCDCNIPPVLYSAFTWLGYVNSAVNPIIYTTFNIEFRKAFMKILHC
Description: The activity of CHF 1024 and CHF 1035 on peripheral DA2 dopaminergic receptors has been tested in the electrically stimulated rabbit rectococcygeus muscle.

[6] = tested on: patients with a moderate congestive heart failure (class NYHA II-III); assay: Randomized double-blind study versus placebo, hemodynamic and neurohumoral parameters; assay type: in vivo, human
Method: In order to investigate the effects of the compound both on the hemodynamic parameters and the neurohumoral pattern, a randomized double-blind study versus placebo was carried out in 18 patients with a moderate congestive heart failure (class NYHA II-III).
Each patient received on 3 consecutive days 2 active doses of CHF 1035 and 1 placebo dose.
The following hemodynamic parameters were evaluated:
pulmonary capillary wedge pressure (PCWP) (mmHg);
cardiac index (CJ) (L/min/m^2);
stroke volume index (SVI) (ml/min/m^2);
systemic vascular resistance (SVR) (dyneseccm^−5);
mean blood pressure (BPm) (mmHg).
The evaluations were carried out by catheterization of the right heart (Swan-Ganz catheter), measuring the hemodynamic parameters of the tested medicament before administration or “pre-dose” (PD) and for the 300 subsequent minutes after the administration or “after-dose” (AD), every 20 minutes for the first 2 hours, then every 60 minutes.
To evaluate the effects of the compound on neurohormones, noradrenaline (NE) (pg/ml) and adrenalin (E) (pg/ml) plasmatic levels were further evaluated, before and 140 minutes after the administration of CHF 1035 and placebo, respectively.

[7] = Pharmacological and clinic pharmacological studies of diuresis; settings: in vivo
[8] = target: α2-adrenergic receptors; assay: α2-adrenergic activity in isolated neuronally-stimulated rat vas deferens
[9] = 5 mg, 140 minutes after administration (AD)
[10] = 5 mg, before administration (PD)
[11] = 10 mg, 140 minutes after administration (AD)
[12] = 10 mg, before administration (PD)
[13] = 15 mg, 140 minutes after administration (AD)
[14] = 15 mg, before administration (PD)

CNC1CCc2c(ccc(OC(=O)C(C)C)c2OC(=O)C(C)C)C1 (stereo not drawn) [CHF 1035, 5,6-Diisobutyroyloxy-2-methylaminotetralin]
pIC50 [1]: 5.58 | transformation by plasma and tissue esterases into the active desesterified form [2]: Immediately after the administration | pIC50 [3]: 4.57 | peak hypotensive effect after pretreatment with the β2-antagonist ([4]; 1 mg/kg i.d., ICI 118.551 0.2 mg/kg i.v. 10 min before): significantly reduced | hypotensive response after both antagonists combined ([4]; 1 mg/kg i.d., ICI 118.551 and domperidone): completely abolished | time to complete recovery of basal value after DA2-antagonist pretreatment ([4]; 1 mg/kg i.d., domperidone i.v. 10 min before, hypotensive response significantly shortened): 60 min | hypotensive response, peak effect, reduction from basal value ([4]; 1 mg/kg intraduodenal, 5 min after administration): about 45% | hypotensive response, reduction from basal value ([4]; 1 mg/kg intraduodenal, 2 hours after administration): about 20% | blood pressure ([4]; intraduodenal, 1 mg/kg): markedly reduced | heart rate ([4]; intraduodenal, 1 mg/kg): without affecting | effect in presence of selective DA2-antagonist domperidone [5]: competitively antagonized | more potent than dopamine [5]: approximately 3 times | pIC50 ([5]; read-out: IC50, 50% inhibition of the electrically induced contraction): 7.53 | reduction in the peripheral vascular resistances ([6]; 5 mg): −15.4% | adrenalin (E) plasmatic level [6, 9]: 42 pg/mL | noradrenaline (NE) plasmatic level [6, 9]: 301 pg/mL | cardiac index (CI) ([6]; 5 mg, after-dose (AD)): 3.4 L/min/m^2 | heart rate (HR) ([6]; 5 mg, after-dose (AD)): 78 bpm | mean blood pressure (BPm) ([6]; 5 mg, after-dose (AD)): 82 mmHg | pulmonary capillary wedge pressure (PCWP) ([6]; 5 mg, after-dose (AD)): 18 mmHg | stroke volume index (SVI) ([6]; 5 mg, after-dose (AD)): 43 ml/min/m^2 | systemic vascular resistance (SVR) ([6]; 5 mg, after-dose (AD)): 1052 dyneseccm^−5 | adrenalin (E) plasmatic level [6, 10]: 56 pg/mL | noradrenaline (NE) plasmatic level [6, 10]: 299 pg/mL | cardiac index (CI) ([6]; 5 mg, pre-dose (PD)): 3 L/min/m^2 | heart rate (HR) ([6]; 5 mg, pre-dose (PD)): 74 bpm | mean blood pressure (BPm) ([6]; 5 mg, pre-dose (PD)): 85 mmHg | pulmonary capillary wedge pressure (PCWP) ([6]; 5 mg, pre-dose (PD)): 22 mmHg | systemic vascular resistance (SVR) ([6]; 5 mg, pre-dose (PD)): 1243 dyneseccm^−5 | reduction in the peripheral vascular resistances ([6]; 10 mg): −27.0% | adrenalin (E) plasmatic level [6, 11]: 62 pg/mL | noradrenaline (NE) plasmatic level [6, 11]: 244 pg/mL | cardiac index (CI) ([6]; 10 mg, after-dose (AD)): 3.4 L/min/m^2 | heart rate (HR) ([6]; 10 mg, after-dose (AD)): 76 bpm | mean blood pressure (BPm) ([6]; 10 mg, after-dose (AD)): 77 mmHg | pulmonary capillary wedge pressure (PCWP) ([6]; 10 mg, after-dose (AD)): 16 mmHg | stroke volume index (SVI) ([6]; 10 mg, after-dose (AD)): 45 ml/min/m^2 | systemic vascular resistance (SVR) ([6]; 10 mg, after-dose (AD)): 1009 dyneseccm^−5 | adrenalin (E) plasmatic level [6, 12]: 65 pg/mL | noradrenaline (NE) plasmatic level [6, 12]: 285 pg/mL | cardiac index (CI) ([6]; 10 mg, pre-dose (PD)): 2.7 L/min/m^2 | heart rate (HR) ([6]; 10 mg, pre-dose (PD)): 70 bpm | mean blood pressure (BPm) ([6]; 10 mg, pre-dose (PD)): 85 mmHg | pulmonary capillary wedge pressure (PCWP) ([6]; 10 mg, pre-dose (PD)): 20 mmHg | stroke volume index (SVI) ([6]; 10 mg, pre-dose (PD)): 38 ml/min/m^2 | systemic vascular resistance (SVR) ([6]; 10 mg, pre-dose (PD)): 1382 dyneseccm^−5 | reduction in the peripheral vascular resistances ([6]; 15 mg): −35.2% | adrenalin (E) plasmatic level [6, 13]: 58 pg/mL | noradrenaline (NE) plasmatic level [6, 13]: 308 pg/mL | cardiac index (CI) ([6]; 15 mg, after-dose (AD)): 4 L/min/m^2 | heart rate (HR) ([6]; 15 mg, after-dose (AD)): 80 bpm | mean blood pressure (BPm) ([6]; 15 mg, after-dose (AD)): 79 mmHg | pulmonary capillary wedge pressure (PCWP) ([6]; 15 mg, after-dose (AD)): 16 mmHg | stroke volume index (SVI) ([6]; 15 mg, after-dose (AD)): 49 ml/min/m^2 | systemic vascular resistance (SVR) ([6]; 15 mg, after-dose (AD)): 881 dyneseccm^−5 | adrenalin (E) plasmatic level [6, 14]: 53 pg/mL | noradrenaline (NE) plasmatic level [6, 14]: 340 pg/mL | cardiac index (CI) ([6]; 15 mg, pre-dose (PD)): 3 L/min/m^2 | heart rate (HR) ([6]; 15 mg, pre-dose (PD)): 74 bpm | mean blood pressure (BPm) ([6]; 15 mg, pre-dose (PD)): 87 mmHg | pulmonary capillary wedge pressure (PCWP) ([6]; 15 mg, pre-dose (PD)): 21 mmHg | stroke volume index (SVI) ([6]; 15 mg, pre-dose (PD)): 40 ml/min/m^2 | systemic vascular resistance (SVR) ([6]; 15 mg, pre-dose (PD)): 1359 dyneseccm^−5 | increase in heart rate ([6]; 5, 10, 15 mg, only a relative increase): not clinically significant | catecholamines plasmatic levels ([6]; during systemic vasodilation): without inducing any reflected increase | diuresis [7]: increases | natriuresis and kaliuresis [7]: without affecting | pIC50 ([8]; isolated neuronally-stimulated rat vas deferens, read-out: IC50, 50% inhibition of the electrically induced contraction): 7.15 | more potent than dopamine ([8]; rat vas deferens): ~70 times
